# Laboratory results: patent US8816097B2, “Active ingredient combinations having insecticide and acaricide properties” (Bayer CropScience AG, priority 2006, dated 2014)
# Experiments:
# [1] = tested on: two-spotted spider mite (Tetranychus urticae); assay: Tetranychus urticae test (sprayed dwarf bean leaves); format: in vivo; details: single active compound
# Excerpt: (§1) Solvents: 78 parts by weight of acetone
# [2] = tested on: larvae of the mustard beetle (Phaedon cochleariae); assay: Phaedon cochleariae larvae test (sprayed cabbage leaves); details: single active compound, 100 g/ha
# [3] = tested on: green peach aphid (Myzus persicae); assay: Myzus persicae test (sprayed cabbage leaves); format: in vivo; details: single active compound, 100 g/ha
# Excerpt: as §1
# [4] = tested on: larvae of the army worm (Spodoptera frugiperda); assay: Spodoptera frugiperda test (sprayed cabbage leaves); format: in vivo; details: single active compound, 100 g/ha
# Excerpt: as §1
SMILES,Kill rate in % after 2d ([1]; 0.8 g/ha),Kill level in % after 6d [2],Kill level in % after 6d [3],Kill level in % after 6d [4],Kill rate in % after 2d ([1]; 0.032 g/ha),Kill rate in % after 2d ([1]; 0.16 g/ha)
"Cc1nn(C)c(/C(OC(=O)C(C)(C)C)=C(\C#N)c2ccc(C(C)(C)C)cc2)c1C [Cyenopyrafen, (1E)-2-cyano-2-[4-(1,1-dimethylethyl)phenyl]-1-(1,3,4-trimethyl-1H-pyrazol-5-yl)ethenyl 2,2-dimethylpropanoate]",80%,50%,0%,,,
"COCCOC(=O)C(C#N)(C(=O)c1ccccc1C(F)(F)F)c1ccc(C(C)(C)C)cc1 (stereo not drawn) [Cyflumetofen, 2-methoxyethyl alpha-cyano-alpha-[4-(1,1-dimethylethyl)phenyl]-beta-oxo-2-(trifluoromethyl)benzenepropanoate]",20%,0%,0%,0%,,
CSC(=O)O/C(=C(/C#N)c1ccc(Cl)cc1)c1ccccc1C(F)(F)F [IKA 2002],0%,33%,,0%,0%,
CCC(C)(C)C(=O)OC1=C(c2ccc(Cl)cc2Cl)C(=O)OC12CCCCC2 [Spirodiclofen],10%,,,,,
Cc1cc(C)c(C2=C(OC(=O)CC(C)(C)C)C3(CCCC3)OC2=O)c(C)c1 [Spiromesifen],10%,,70%,,,0%
CCOC(=O)OC1=C(c2cc(C)ccc2C)C(=O)N[C@]12CC[C@@H](OC)CC2 [Spirotetramat],0%,33%,,50%,,
